Results reported in patent EP3441077A1, “PHARMACEUTICAL PRODUCT FOR TREATING ANKYLOSING SPONDYLITIS AND COMBINED IMMUNE DEFECT, AND PREPARATION AND APPLICATION THEREOF” (Beijing Lu De Kai Qi Co., Ltd., priority 2016, dated 2017).
Where two headings read alike, the source gives them in different places. Marks after values point to notes of the source that are not given here.

What was measured:
[1] = test system: mouse bone marrow polychromatic erythrocytes; conditions: 50 mg/kg•bw, positive control; for Number of micronucleus: 5000 cells examined; for Micronucleus rate (‰): P<0.01 vs negative control
Method: Test animals: The healthy Kunming mice provided by the Experimental Animal Center of the National Institute for the Control of Pharmaceutical and Biological Products are selected. • 3. Mouse bone marrow polychromatic erythrocyte micronucleus assay The assay was carried out via oral gavage and the administration was performed twice at intervals of 24 hr. 50 mice weighing 25-30 g are randomly divided into 5 groups according to body weight, 10 in each group, half male and half female. […] The doses of the pharmaceutical product for treating ankylosing spondylitis for combined immunodeficiency according to the present invention are 2.50, 5.00, and 10.00 g/kg•bw, respectively, which were adjusted to the desired concentration with distilled water. The animals were sacrificed by cervical dislocation six hours after the last administration of the pharmaceutical product for treating ankylosing spondylitis for combined immunodeficiency according to the present invention. The bone marrow of sternum was diluted with calf serum, smeared, fixed in methanol, and stained with Giemsa. Under the light microscope, 1000 polychromatic erythrocytes (PRC) were measured per animal, and the incidence of micronucleus was determined by the permillage of micronucleus-containing PRC and statistical process is performed.

male mice = conditions: 40 mg/kg•bw, positive control
Method: Sperm abnormality assay in mice 50 sexually mature male mice weighing 30-35 g is randomly divided into 5 groups. […] The doses of the pharmaceutical product for treating ankylosing spondylitis for combined immunodeficiency according to the present invention is 1.25, 2.50, and 5.00 g/kg•bw, respectively, which were adjusted to the desired concentration with distilled water. The mice were administered via oral gavage once a day for 5 days, and the animals were sacrificed 30 days after the last gavage. The epididymis is sectioned and stained with eosin. Five animals were measured in each group and 1000 spermatozoa with intact structural were measured per animal, by which the incidence of sperm abnormality (in percentage) was calculated and statistical process is performed. […] Table 3 Statistical results of sperm abnormality assay in mice

[2] = test system: patients with ankylosing spondylitis; test: Clinical trial in patients with ankylosing spondylitis; assay type: in vivo, human; conditions: for Cure / Effective / Improved / Ineffective / excellence / upturn: 100 patients per group
Method: Clinical trials were performed in patients with ankylosing spondylitis. The criteria for inclusion are as follows: • (1) The New York Standard for Ankylosing Spondylitis revised in 1984 is met. • (2) The diagnostic criteria for the "renal deficiency and cold syndrome" of Ankylosing Spondylitis in Traditional Chinese Medicine is met. It is obtained by reference to the "Guidelines for Clinical Research of New Pharmaceutical products for Treating Arthralgia" and combined with the clinical experience of Professor Jiao Shude and Professor Yan Xiaoping. […] The five criteria for IBP are: age of onset <40 years old; insidious onset; improvement after exercise; no improvement after rest; and nocturnal pain (improvement after getting up). If the patient meets 4 of them, he or she can be confirmed to have IBP (sensitivity 77.0%, specificity 91.7%). […] Treatment method: a randomized control method was used. There are 100 patients in the test group, 100 patients in the control group 1, and 100 patients in the control group 2. […] Control group 1: the patients were orally administrated with loxoprofen sodium from Sankyo Co. Ltd., Japan twice a day in the morning and evening, and 3 months is a course of treatment. Control group 2: the patients were orally administrated with the traditional Chinese medicine for treating ankylosing spondylitis prepared in the examples of CN102091137B twice a day in the morning and evening, and 3 months is a course of treatment. No other medications for ankylosing spondylitis is administered during the course of treatment. In particular, the traditional Chinese medicine for treating ankylosing spondylitis prepared in the examples of CN102091137B is prepared as following: weighing the raw materials that contain in the formula ,that is 10 g of rhizoma cibotii, 15 g of pilose antler, 10 g of dipsacus asper, 5 g of scorpio, 15 g of kudzu vine root, 12 g of chuanxiong rhizome, 5 g of caulis spatholobi, 15 g of white paeony root, 15 g of common peony root, 10g of safflower carthamus, 15 g of medicinal cyathula root and 10 g of white mustard seed, adding 1500 ml of water, decocting with slow fire to concentrate the medicine liquid to 250 ml, filtering dregs of a decoction and preparing a decoction. Table 8 Indicators for efficacy evaluation in this clinical trial [table] […] Table 9 Statistical results of clinical trial After taking three courses of treatment, all the patients in the three groups stopped taking medication, and whether the symptoms were aggravated or slowed down was observed one month, three months, and twelve months after pharmaceutical product withdrawal. If the symptoms after a period of drug withdrawal were more serious than the symptoms at the time of drug withdrawal, it was labeled as "-", otherwise labeled as "+". If there were two grades in the difference, it was labeled as […]. For example, if the therapeutic effect of patient A at the time of drug withdrawal was improved, and the therapeutic effect twelve months after drug withdrawal was Ineffective, it was labeled as "-2". Table 10 Statistical results of clinical trial after pharmaceutical product withdrawal

[3] = At the time of drug withdrawal (after three courses)
[4] = One course of treatment (3 months), oral twice a day, graded per Table 8
[5] = One month after drug withdrawal
[6] = Three courses of treatment, oral twice a day, graded per Table 8
[7] = Twelve months after drug withdrawal
[8] = three months after drug withdrawal

O=P1(N(CCCl)CCCl)NCCCO1 (stereo not shown) [cp, cyclophosphamide]
Number of micronucleus ([1]; Female mice): 150
Micronucleus rate (‰) ([1]; Female mice): 30.0* ‰
Number of micronucleus ([1]; Male mice): 167
Micronucleus rate (‰) ([1]; Male mice): 33.4* ‰
Number of abnormal sperms (male mice; 5000 sperms examined): 487
Rate of sperm abnormality (%) (male mice; P<0.01 vs negative control): 9.74* %

CC(C(=O)O)c1ccc(CC2CCCC2=O)cc1 (stereo not shown) [loxoprofen sodium]
Cure [2, 3]: 0 case
Effective [2, 3]: 36 case
Improved [2, 3]: 3 case
Ineffective [2, 3]: 61 case
Cure [2, 4]: 0 case
Ineffective [2, 4]: 82 case
excellence [2, 4]: 0 case
upturn [2, 4]: 18 case
Cure [2, 5]: 0 case
Effective [2, 5]: 31 case
Improved [2, 5]: 2 case
Ineffective [2, 5]: 67 case
Cure [2, 6]: 0 case
Ineffective [2, 6]: 61 case
excellence [2, 6]: 3 case
upturn [2, 6]: 36 case
Cure [2, 7]: 0 case
Effective [2, 7]: 9 case
Improved [2, 7]: 0 case
Ineffective [2, 7]: 91 case
course of the therapeutic effect after withdrawal (in words) ([2]; after three courses of treatment and then withdrawal): had more disease relapse
Cure [2, 8]: 0 case
Effective [2, 8]: 20 case
Improved [2, 8]: 0 case
Ineffective [2, 8]: 80 case
